Experimental data from PMC11969537 (ACS Chemical Neuroscience, 2025).
pIC50: −log10 of the molar value.

Target: cathepsin B (Mus musculus, UniProt P10605)
Assay: fluorogenic protease assay with Z-Phe-Arg-AMC at pH […]
Format: biochemical

cathepsin B, sequence (P10605 80-333): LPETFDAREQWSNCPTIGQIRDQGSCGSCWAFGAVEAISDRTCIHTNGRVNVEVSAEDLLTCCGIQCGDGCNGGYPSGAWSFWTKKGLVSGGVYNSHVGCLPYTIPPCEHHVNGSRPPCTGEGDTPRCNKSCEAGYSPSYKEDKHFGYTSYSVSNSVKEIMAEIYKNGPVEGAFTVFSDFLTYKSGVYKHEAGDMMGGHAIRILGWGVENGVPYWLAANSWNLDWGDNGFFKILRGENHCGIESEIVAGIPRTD

pIC50: 7.60
Structure (SMILES): Cc1cccc(C)c1C(=O)OCC(=O)[C@H](CCCCN)NC(=O)[C@H](CCCNC(=N)N)NC(=O)OCc1ccccc1 [Z-Arg-Lys-AOMK]
